# Experimental data taken from patent publication US8952024B2, “Herbicidal pyrimidone derivatives” (E I du Pont de Nemours and Company, priority 2009, dated 2015).
# System: cocklebur (Xanthium strumarium)
# Test: Test B pre-/postemergence plant response
# Format: in vivo
# Settings: 31 g ai/ha, postemergence; scale 0 to 100, 0 is no effect, 100 is complete control
# Outline: (§1)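 Plants treated either at seeding (loam/sand soil) or postemergence at 2 to 18 cm height, using a surfactant-containing non-phytotoxic solvent formulation. Evaluation was visual after 13 to 15 days, 0 to 100 scale relative to controls.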
row,Compound,"Plant response rating, Cocklebur"
1,O=C1CCCC(OC(=O)C2CC2)=C1C(=O)c1cnc(-c2ccccc2)n(-c2ccccc2)c1=O [Compound 88],90

# Same assay, conditions: 62 g ai/ha, postemergence; 0 is no effect, 100 is complete control; 13 to 15 days
row,Compound,Cocklebur plant response rating (0 to 100 scale)
1,O=C1CCCC(OC(=O)C2CC2)=C1C(=O)c1cnc(-c2ccccc2)n(-c2ccccc2)c1=O [Compound 88],90

# Same assay, conditions: Postemergence, 125 g ai/ha; visual rating after 13 to 15 days, scale 0 (no effect) to 100 (complete control)
row,Compound,"Plant response rating, Cocklebur"
1,O=C1CCCC(OC(=O)C2CC2)=C1C(=O)c1cnc(-c2ccccc2)n(-c2ccccc2)c1=O [Compound 88],95

# Same assay, conditions: Postemergence, 250 g ai/ha; scale 0 to 100 (0 no effect, 100 complete control)
row,Compound,"Plant response rating, Cocklebur"
1,O=C1CCCC(OC(=O)C2CC2)=C1C(=O)c1cnc(-c2ccccc2)n(-c2ccccc2)c1=O [Compound 88],95

# System: goosegrass (Eleusine indica)
# Test: Test B pre-/postemergence plant response
# Format: in vivo
# Settings: 31 g ai/ha, postemergence; scale 0 to 100, 0 is no effect, 100 is complete control
# Outline: as §1
row,Compound,"Plant response rating, Goosegrass"
1,O=C1CCCC(OC(=O)C2CC2)=C1C(=O)c1cnc(-c2ccccc2)n(-c2ccccc2)c1=O [Compound 88],65

# Same assay, conditions: 62 g ai/ha, postemergence; 0 is no effect, 100 is complete control; 13 to 15 days
row,Compound,Goosegrass plant response rating (0 to 100 scale)
1,O=C1CCCC(OC(=O)C2CC2)=C1C(=O)c1cnc(-c2ccccc2)n(-c2ccccc2)c1=O [Compound 88],70

# Same assay, conditions: Postemergence, 250 g ai/ha; scale 0 to 100 (0 no effect, 100 complete control)
row,Compound,"Plant response rating, Goosegrass"
1,O=C1CCCC(OC(=O)C2CC2)=C1C(=O)c1cnc(-c2ccccc2)n(-c2ccccc2)c1=O [Compound 88],70

# System: johnsongrass (Sorghum halepense)
# Test: Test B pre-/postemergence plant response
# Format: in vivo
# Settings: 31 g ai/ha, postemergence; scale 0 to 100, 0 is no effect, 100 is complete control
# Outline: as §1
row,Compound,"Plant response rating, Johnsongrass"
1,O=C1CCCC(OC(=O)C2CC2)=C1C(=O)c1cnc(-c2ccccc2)n(-c2ccccc2)c1=O [Compound 88],95

# Same assay, conditions: 62 g ai/ha, postemergence; 0 is no effect, 100 is complete control; 13 to 15 days
row,Compound,Johnsongrass plant response rating (0 to 100 scale)
1,O=C1CCCC(OC(=O)C2CC2)=C1C(=O)c1cnc(-c2ccccc2)n(-c2ccccc2)c1=O [Compound 88],100

# Same assay, conditions: Postemergence, 250 g ai/ha; scale 0 to 100 (0 no effect, 100 complete control)
row,Compound,"Plant response rating, Johnsongrass"
1,O=C1CCCC(OC(=O)C2CC2)=C1C(=O)c1cnc(-c2ccccc2)n(-c2ccccc2)c1=O [Compound 88],100

# System: kochia (Kochia scoparia)
# Test: Test B pre-/postemergence plant response
# Format: in vivo
# Settings: 31 g ai/ha, postemergence; scale 0 to 100, 0 is no effect, 100 is complete control
# Outline: as §1
row,Compound,"Plant response rating, Kochia"
1,O=C1CCCC(OC(=O)C2CC2)=C1C(=O)c1cnc(-c2ccccc2)n(-c2ccccc2)c1=O [Compound 88],75

# Same assay, conditions: 62 g ai/ha, postemergence; 0 is no effect, 100 is complete control; 13 to 15 days
row,Compound,Kochia plant response rating (0 to 100 scale)
1,O=C1CCCC(OC(=O)C2CC2)=C1C(=O)c1cnc(-c2ccccc2)n(-c2ccccc2)c1=O [Compound 88],75

# Same assay, conditions: Postemergence, 250 g ai/ha; scale 0 to 100 (0 no effect, 100 complete control)
row,Compound,"Plant response rating, Kochia"
1,O=C1CCCC(OC(=O)C2CC2)=C1C(=O)c1cnc(-c2ccccc2)n(-c2ccccc2)c1=O [Compound 88],85

# System: pigweed (Amaranthus retroflexus)
# Test: Test B pre-/postemergence plant response
# Format: in vivo
# Settings: 31 g ai/ha, postemergence; scale 0 to 100, 0 is no effect, 100 is complete control
# Outline: as §1
row,Compound,"Plant response rating, Pigweed"
1,O=C1CCCC(OC(=O)C2CC2)=C1C(=O)c1cnc(-c2ccccc2)n(-c2ccccc2)c1=O [Compound 88],98

# Same assay, conditions: 62 g ai/ha, postemergence; 0 is no effect, 100 is complete control; 13 to 15 days
row,Compound,Pigweed plant response rating (0 to 100 scale)
1,O=C1CCCC(OC(=O)C2CC2)=C1C(=O)c1cnc(-c2ccccc2)n(-c2ccccc2)c1=O [Compound 88],100

# Same assay, conditions: Postemergence, 250 g ai/ha; scale 0 to 100 (0 no effect, 100 complete control)
row,Compound,"Plant response rating, Pigweed"
1,O=C1CCCC(OC(=O)C2CC2)=C1C(=O)c1cnc(-c2ccccc2)n(-c2ccccc2)c1=O [Compound 88],100

# System: ragweed (common ragweed, Ambrosia elatior)
# Test: Test B pre-/postemergence plant response
# Format: in vivo
# Settings: 31 g ai/ha, postemergence; scale 0 to 100, 0 is no effect, 100 is complete control
# Outline: as §1
row,Compound,"Plant response rating, Ragweed"
1,O=C1CCCC(OC(=O)C2CC2)=C1C(=O)c1cnc(-c2ccccc2)n(-c2ccccc2)c1=O [Compound 88],75

# Same assay, conditions: 62 g ai/ha, postemergence; 0 is no effect, 100 is complete control; 13 to 15 days
row,Compound,Ragweed plant response rating (0 to 100 scale)
1,O=C1CCCC(OC(=O)C2CC2)=C1C(=O)c1cnc(-c2ccccc2)n(-c2ccccc2)c1=O [Compound 88],80

# Same assay, conditions: Postemergence, 250 g ai/ha; scale 0 to 100 (0 no effect, 100 complete control)
row,Compound,"Plant response rating, Ragweed"
1,O=C1CCCC(OC(=O)C2CC2)=C1C(=O)c1cnc(-c2ccccc2)n(-c2ccccc2)c1=O [Compound 88],98

# System: soybean (Glycine max)
# Test: Test B pre-/postemergence plant response
# Format: in vivo
# Settings: 31 g ai/ha, postemergence; scale 0 to 100, 0 is no effect, 100 is complete control
# Outline: as §1
row,Compound,"Plant response rating, Soybean"
1,O=C1CCCC(OC(=O)C2CC2)=C1C(=O)c1cnc(-c2ccccc2)n(-c2ccccc2)c1=O [Compound 88],75

# Same assay, conditions: 62 g ai/ha, postemergence; 0 is no effect, 100 is complete control; 13 to 15 days
row,Compound,Soybean plant response rating (0 to 100 scale)
1,O=C1CCCC(OC(=O)C2CC2)=C1C(=O)c1cnc(-c2ccccc2)n(-c2ccccc2)c1=O [Compound 88],90

# Same assay, conditions: Postemergence, 250 g ai/ha; scale 0 to 100 (0 no effect, 100 complete control)
row,Compound,"Plant response rating, Soybean"
1,O=C1CCCC(OC(=O)C2CC2)=C1C(=O)c1cnc(-c2ccccc2)n(-c2ccccc2)c1=O [Compound 88],98

# System: velvetleaf (Abutilon theophrasti)
# Test: Test B pre-/postemergence plant response
# Format: in vivo
# Settings: 31 g ai/ha, postemergence; scale 0 to 100, 0 is no effect, 100 is complete control
# Outline: as §1
row,Compound,"Plant response rating, Velvetleaf"
1,O=C1CCCC(OC(=O)C2CC2)=C1C(=O)c1cnc(-c2ccccc2)n(-c2ccccc2)c1=O [Compound 88],80

# Same assay, conditions: 62 g ai/ha, postemergence; 0 is no effect, 100 is complete control; 13 to 15 days
row,Compound,Velvetleaf plant response rating (0 to 100 scale)
1,O=C1CCCC(OC(=O)C2CC2)=C1C(=O)c1cnc(-c2ccccc2)n(-c2ccccc2)c1=O [Compound 88],90

# Same assay, conditions: Postemergence, 250 g ai/ha; scale 0 to 100 (0 no effect, 100 complete control)
row,Compound,"Plant response rating, Velvetleaf"
1,O=C1CCCC(OC(=O)C2CC2)=C1C(=O)c1cnc(-c2ccccc2)n(-c2ccccc2)c1=O [Compound 88],98

# System: wheat (Triticum aestivum)
# Test: Test B pre-/postemergence plant response
# Format: in vivo
# Settings: 31 g ai/ha, postemergence; scale 0 to 100, 0 is no effect, 100 is complete control
# Outline: as §1
row,Compound,"Plant response rating, Wheat"
1,O=C1CCCC(OC(=O)C2CC2)=C1C(=O)c1cnc(-c2ccccc2)n(-c2ccccc2)c1=O [Compound 88],0

# Same assay, conditions: 62 g ai/ha, postemergence; 0 is no effect, 100 is complete control; 13 to 15 days
row,Compound,Wheat plant response rating (0 to 100 scale)
1,O=C1CCCC(OC(=O)C2CC2)=C1C(=O)c1cnc(-c2ccccc2)n(-c2ccccc2)c1=O [Compound 88],5

# Same assay, conditions: Postemergence, 250 g ai/ha; scale 0 to 100 (0 no effect, 100 complete control)
row,Compound,"Plant response rating, Wheat"
1,O=C1CCCC(OC(=O)C2CC2)=C1C(=O)c1cnc(-c2ccccc2)n(-c2ccccc2)c1=O [Compound 88],5

# System: wild oat (Avena fatua)
# Test: Test B pre-/postemergence plant response
# Format: in vivo
# Settings: 31 g ai/ha, postemergence; scale 0 to 100, 0 is no effect, 100 is complete control
# Outline: as §1
row,Compound,"Plant response rating, Oat, Wild"
1,O=C1CCCC(OC(=O)C2CC2)=C1C(=O)c1cnc(-c2ccccc2)n(-c2ccccc2)c1=O [Compound 88],50

# Same assay, conditions: 62 g ai/ha, postemergence; 0 is no effect, 100 is complete control; 13 to 15 days
row,Compound,"Oat, Wild plant response rating (0 to 100 scale)"
1,O=C1CCCC(OC(=O)C2CC2)=C1C(=O)c1cnc(-c2ccccc2)n(-c2ccccc2)c1=O [Compound 88],55

# Same assay, conditions: Postemergence, 250 g ai/ha; scale 0 to 100 (0 no effect, 100 complete control)
row,Compound,"Plant response rating, Oat, Wild"
1,O=C1CCCC(OC(=O)C2CC2)=C1C(=O)c1cnc(-c2ccccc2)n(-c2ccccc2)c1=O [Compound 88],80

# System: canarygrass (Phalaris minor)
# Test: Test B postemergence plant response
# Format: in vivo
# Settings: 31 g ai/ha, postemergence; scale 0 to 100, 0 is no effect, 100 is complete control
# Outline: (§2)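 Visual ratings from 0 (no effect) to 100 (complete control), made against controls 13–15 days after treatment, kept in a greenhouse. Compounds were applied postemergence to potted plants at the 1- to 4-leaf stage (2–18 cm).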
row,Compound,"Plant response rating, Canarygrass"
1,O=C1CCCC(OC(=O)C2CC2)=C1C(=O)c1cnc(-c2ccccc2)n(-c2ccccc2)c1=O [Compound 88],60

# Same assay, conditions: 62 g ai/ha, postemergence; 0 is no effect, 100 is complete control; 13 to 15 days
row,Compound,Canarygrass plant response rating (0 to 100 scale)
1,O=C1CCCC(OC(=O)C2CC2)=C1C(=O)c1cnc(-c2ccccc2)n(-c2ccccc2)c1=O [Compound 88],70

# Same assay, conditions: Postemergence, 125 g ai/ha; visual rating after 13 to 15 days, scale 0 (no effect) to 100 (complete control)
row,Compound,"Plant response rating, Canarygrass"
1,O=C1CCCC(OC(=O)C2CC2)=C1C(=O)c1cnc(-c2ccccc2)n(-c2ccccc2)c1=O [Compound 88],80

# Same assay, conditions: Postemergence, 250 g ai/ha; scale 0 to 100 (0 no effect, 100 complete control)
row,Compound,"Plant response rating, Canarygrass"
1,O=C1CCCC(OC(=O)C2CC2)=C1C(=O)c1cnc(-c2ccccc2)n(-c2ccccc2)c1=O [Compound 88],90

# System: chickweed (Stellaria media)
# Test: Test B postemergence plant response
# Format: in vivo
# Settings: 31 g ai/ha, postemergence; scale 0 to 100, 0 is no effect, 100 is complete control
# Outline: as §2
row,Compound,"Plant response rating, Chickweed"
1,O=C1CCCC(OC(=O)C2CC2)=C1C(=O)c1cnc(-c2ccccc2)n(-c2ccccc2)c1=O [Compound 88],75

# Same assay, conditions: 62 g ai/ha, postemergence; 0 is no effect, 100 is complete control; 13 to 15 days
row,Compound,Chickweed plant response rating (0 to 100 scale)
1,O=C1CCCC(OC(=O)C2CC2)=C1C(=O)c1cnc(-c2ccccc2)n(-c2ccccc2)c1=O [Compound 88],85

# Same assay, conditions: Postemergence, 125 g ai/ha; visual rating after 13 to 15 days, scale 0 (no effect) to 100 (complete control)
row,Compound,"Plant response rating, Chickweed"
1,O=C1CCCC(OC(=O)C2CC2)=C1C(=O)c1cnc(-c2ccccc2)n(-c2ccccc2)c1=O [Compound 88],95

# Same assay, conditions: Postemergence, 250 g ai/ha; scale 0 to 100 (0 no effect, 100 complete control)
row,Compound,"Plant response rating, Chickweed"
1,O=C1CCCC(OC(=O)C2CC2)=C1C(=O)c1cnc(-c2ccccc2)n(-c2ccccc2)c1=O [Compound 88],95

# System: windgrass (Apera spica-venti)
# Test: Test B postemergence plant response
# Format: in vivo
# Settings: 31 g ai/ha, postemergence; scale 0 to 100, 0 is no effect, 100 is complete control
# Outline: as §2
row,Compound,"Plant response rating, Windgrass"
1,O=C1CCCC(OC(=O)C2CC2)=C1C(=O)c1cnc(-c2ccccc2)n(-c2ccccc2)c1=O [Compound 88],40

# Same assay, conditions: 62 g ai/ha, postemergence; 0 is no effect, 100 is complete control; 13 to 15 days
row,Compound,Windgrass plant response rating (0 to 100 scale)
1,O=C1CCCC(OC(=O)C2CC2)=C1C(=O)c1cnc(-c2ccccc2)n(-c2ccccc2)c1=O [Compound 88],60

# Same assay, conditions: Postemergence, 250 g ai/ha; scale 0 to 100 (0 no effect, 100 complete control)
row,Compound,"Plant response rating, Windgrass"
1,O=C1CCCC(OC(=O)C2CC2)=C1C(=O)c1cnc(-c2ccccc2)n(-c2ccccc2)c1=O [Compound 88],70
